Experiments:
[1] = tested on: A549-ACE2 infected with SARS-CoV-2; test: cell count relative to DMSO; higher = less toxic; conditions: 24 h
Calu-3 [2] = test: cell viability relative to DMSO; higher = less toxic; conditions: 72 h
Caco-2 [3] = test: as above; conditions: 72 h
Vero E6 [4] = test: as above; conditions: 72 h
U2OS [5] = test: as above; conditions: 72 h
HepG2 [6] = test: as above; conditions: 72 h
Calu-3 [7] = test: drug sensitivity score (DSS) for viability; higher = more toxic; extreme values may be limits of the assay; conditions: 72 h
Caco-2 [8] = test: as above; conditions: 72 h
Vero E6 [9] = test: as above; conditions: 72 h
U2OS [10] = test: as above; conditions: 72 h
HepG2 [11] = test: as above; conditions: 72 h
A549-ACE2 = test: drug-induced phospholipidosis relative to tamoxifen; higher = more phospholipidosis
[12] = tested on: A549-ACE2 infected with SARS-CoV-2; test: SARS-CoV-2 infection rate relative to DMSO; higher = more infection; conditions: 24 h
[13] = tested on: A549-ACE2 infected with SARS-CoV-2; test: morphology score (similarity to uninfected cells); higher = more like uninfected cells; conditions: 24 h
Calu-3 [14] = test: relative viability EC50 (midpoint between 100% and the lowest measured viability); higher = less toxic; conditions: 72 h
Vero E6 [15] = test: as above; conditions: 72 h
U2OS [16] = test: as above; conditions: 72 h
HepG2 [17] = test: as above; conditions: 72 h
Caco-2 [18] = test: as above; conditions: 72 h

CCC(CC)COC(=O)[C@H](C)N[P@](=O)(OC[C@H]1O[C@@](C#N)(c2ccc3c(N)ncnn23)[C@H](O)[C@@H]1O)Oc1ccccc1 [Remdesivir]
Conditions	SARS-CoV-2 infection rate [%]	cell count [%]	cell viability [%]	morphology score
Caco-2 [3], 1 nM	–	–	103	–
Caco-2 [3], 10 nM	–	–	101	–
Caco-2 [3], 100 nM	–	–	102	–
Caco-2 [3], 1000 nM	–	–	102	–
Caco-2 [3], 10000 nM	–	–	69.3	–
Calu-3 [2], 1 nM	–	–	90.6	–
Calu-3 [2], 10 nM	–	–	103	–
Calu-3 [2], 100 nM	–	–	88.7	–
Calu-3 [2], 1000 nM	–	–	97	–
Calu-3 [2], 10000 nM	–	–	81.1	–
HepG2 [6], 1 nM	–	–	101	–
HepG2 [6], 10 nM	–	–	95.5	–
HepG2 [6], 100 nM	–	–	105	–
HepG2 [6], 1000 nM	–	–	70.2	–
HepG2 [6], 10000 nM	–	–	33.7	–
U2OS [5], 1 nM	–	–	98	–
U2OS [5], 10 nM	–	–	100	–
U2OS [5], 100 nM	–	–	101	–
U2OS [5], 1000 nM	–	–	96.1	–
U2OS [5], 10000 nM	–	–	42.6	–
Vero E6 [4], 1 nM	–	–	97.2	–
Vero E6 [4], 10 nM	–	–	97.6	–
Vero E6 [4], 100 nM	–	–	99.7	–
Vero E6 [4], 1000 nM	–	–	99.3	–
Vero E6 [4], 10000 nM	–	–	109	–
[1], 0.008 µM	–	104	–	–
[1], 0.033 µM	–	114	–	–
[1], 0.1 µM	–	120	–	–
[1], 0.3 µM	–	126	–	–
[1], 1 µM	–	124	–	–
[1], 3 µM	–	116	–	–
[1], 10 µM	–	111	–	–
[1], 30 µM	–	105	–	–
[12], 0.008 µM	95	–	–	–
[12], 0.033 µM	83	–	–	–
[12], 0.1 µM	18	–	–	–
[12], 0.3 µM	11	–	–	–
[12], 1 µM	16	–	–	–
[12], 3 µM	9	–	–	–
[12], 10 µM	2	–	–	–
[12], 30 µM	2	–	–	–
[13], 0.008 µM	–	–	–	0.17
[13], 0.033 µM	–	–	–	0.61
[13], 0.1 µM	–	–	–	0.82
[13], 0.3 µM	–	–	–	0.95
[13], 1 µM	–	–	–	0.96
[13], 3 µM	–	–	–	0.97
[13], 10 µM	–	–	–	0.93
[13], 30 µM	–	–	–	0.93

Conditions	drug sensitivity score	relative viability EC50 [nM]
Caco-2 [8]	1.2	–
Calu-3 [7]	0.4	–
Calu-3 [14]	–	> 10000
HepG2 [11]	7.5	–
HepG2 [17]	–	1090
U2OS [10]	3.7	–
U2OS [16]	–	2620
Vero E6 [9]	0	–
Vero E6 [15]	–	> 10000

drug-induced phospholipidosis [%], A549-ACE2
Conditions	0.3 µM	0.833333 µM	3.33333 µM	6.66667 µM	10 µM	30 µM
24 h	1.03	-4.55	5.63	18	30	47.1
48 h	4.23	-7.54	0.11	4.58	10.5	–
72 h	4.52	-8.77	-4.57	–	–	–

COc1ccc(C[C@H]2NC[C@H](O)[C@H]2OC(C)=O)cc1 [anisomycin]
Conditions	SARS-CoV-2 infection rate, [12] [%]	cell count, [1] [%]	cell viability, Caco-2 [3] [%]	cell viability, Calu-3 [2] [%]	cell viability, HepG2 [6] [%]	cell viability, U2OS [5] [%]	cell viability, Vero E6 [4] [%]	morphology score, [13]
1 nM	–	–	99.4	103	96.1	103	94.1	–
10 nM	–	–	87	97.9	98.5	95.6	93	–
0.1 µM	7	103	–	–	–	–	–	0.85
100 nM	–	–	58.5	67.4	39.4	53.4	34.1	–
0.3 µM	6	85	–	–	–	–	–	0.65
1 µM	18	64	–	–	–	–	–	0.48
1000 nM	–	–	24.8	35.1	11.8	5.4	9.8	–
3 µM	14	34	–	–	–	–	–	0.46
10000 nM	–	–	26.5	29.1	3.7	0.5	0.4	–

Conditions	drug sensitivity score	relative viability EC50 [nM]
Caco-2 [8]	18.9	–
Caco-2 [18]	–	69.1
Calu-3 [7]	16.1	–
Calu-3 [14]	–	117
HepG2 [11]	24.6	–
HepG2 [17]	–	72.8
U2OS [10]	22.9	–
U2OS [16]	–	110
Vero E6 [9]	25.9	–
Vero E6 [15]	–	61.4

A549-ACE2, 24 h
Conditions	drug-induced phospholipidosis [%]
0.3 µM	4.72
0.833333 µM	-0.99

CNC(=O)c1ccccc1Sc1ccc2c(/C=C/c3ccccn3)n[nH]c2c1 [axitinib]
Conditions	SARS-CoV-2 infection rate, [12] [%]	cell count, [1] [%]	cell viability, Caco-2 [3] [%]	cell viability, Calu-3 [2] [%]	cell viability, HepG2 [6] [%]	cell viability, U2OS [5] [%]	cell viability, Vero E6 [4] [%]	morphology score, [13]
1 nM	–	–	97.2	108	111	102	114	–
10 nM	–	–	108	102	97.7	104	106	–
100 nM	–	–	92	93.6	108	103	108	–
0.3 µM	92	105	–	–	–	–	–	0.34
1000 nM	–	–	97.8	86.7	92.2	105	101	–
3 µM	98	75	–	–	–	–	–	0.32
10 µM	96	77	–	–	–	–	–	0.35
10000 nM	–	–	72.5	81	71.8	74	94.2	–
30 µM	91	68	–	–	–	–	–	0.49

Conditions	drug sensitivity score	relative viability EC50 [nM]
Caco-2 [8]	1.5	–
Calu-3 [7]	1.7	–
Calu-3 [14]	–	> 10000
HepG2 [11]	2.3	–
U2OS [10]	0.8	–
Vero E6 [9]	0	–
Vero E6 [15]	–	> 10000

drug-induced phospholipidosis [%], A549-ACE2
Conditions	0.3 µM	0.833333 µM	3.33333 µM	6.66667 µM	10 µM	30 µM
24 h	2.86	4.48	16.8	10.3	7.44	17.1
48 h	1.43	3.96	7.83	7.9	8.63	15.9
72 h	4.56	4.58	–	–	–	–

C[C@H]1[C@H](NC(=O)/C(=N\OC(C)(C)C(=O)O)c2csc(N)n2)C(=O)N1S(=O)(=O)O [aztreonam]
Conditions	SARS-CoV-2 infection rate, [12] [%]	cell count, [1] [%]	cell viability, Caco-2 [3] [%]	cell viability, Calu-3 [2] [%]	cell viability, HepG2 [6] [%]	cell viability, U2OS [5] [%]	cell viability, Vero E6 [4] [%]	morphology score, [13]
1 nM	–	–	96.9	103	93	99.3	93	–
10 nM	–	–	91.7	99.8	108	93.9	95.2	–
100 nM	–	–	94.5	94.6	96.3	98.4	93.3	–
0.3 µM	105	102	–	–	–	–	–	0.12
1000 nM	–	–	96.2	95.6	101	97.6	96.1	–
3 µM	109	97	–	–	–	–	–	-0.22
10 µM	98	99	–	–	–	–	–	0.07
10000 nM	–	–	104	103	104	92.5	102	–
30 µM	93	107	–	–	–	–	–	0.28

Conditions	drug sensitivity score	relative viability EC50 [nM]
Caco-2 [8]	0	–
Caco-2 [18]	–	> 10000
Calu-3 [7]	0	–
Calu-3 [14]	–	> 10000
HepG2 [11]	0	–
HepG2 [17]	–	> 10000
U2OS [10]	0	–
U2OS [16]	–	> 10000
Vero E6 [9]	0	–
Vero E6 [15]	–	> 10000

drug-induced phospholipidosis [%], A549-ACE2
Conditions	0.3 µM	0.833333 µM	3.33333 µM	6.66667 µM	10 µM	30 µM
24 h	0.05	-0.48	-0.4	1.8	0.46	0.6
48 h	4.27	0.47	-0.36	-0.48	2.78	5.88
72 h	2.06	-3.37	-0.186	-0.381	3.05	4.25

From the supplement of paper PMC13380429
